US20260158140A1, “METHODS AND MATERIALS FOR IMPROVING T CELL THERAPIES” (Mayo Foundation for Medical Education and Research, priority 2021, published 2026)
“Also recorded” adds a separate entry of the source.

Key:
[1] = test system: CD19+ Mantle cell lymphoma cell line, Jeko-1; experiment: CART19 cytotoxicity: co-culture of CART19 or UTD T cells with JeKo-1, percent killing; assay type: cell-based, human
Protocol: FIGS. 1A-1C. […] CART19 and live JeKo-1 were co-cultured at 1:1 ratio for 24 hours in the presence of DMSO or vecabrutinib (1 μM or 10 μM). The percentage of killing were assessed relative to control (****p<0.0001, two-way ANOVA). […] CART19 and irradiated JeKo-1 were co-cultured at 1:1 ratio for 24 hours in the presence of DMSO or vecabrutinib (1 μM or 10 μM). Absolute CD3^+ T cell counts were assessed by flow cytometry (**p<0.01, two-way ANOVA) . […] JeKo-1 target cells were incubated with CART19 at a 5:1 ratio with monensin, hCD49d, and hCD28 in the presence of vecabrutinib at the indicated concentrations for 4 hours. Cells were then analyzed using intracellular flow cytometric assessment of CD107a as a marker for degranulation.
FIG. 10. CART19 cytotoxicity in the presence of Vecabrutinib versus the irreversible BTK inhibitor, Ibrutinib. CART19 or control cells (UTD) were cocultured at different effector-to-target ratio (E:T) with Jeko-1 cell line with vecabrutinib at 1 μM or 10 μM, or ibrutinib at 1 μM. At 24 hours, live Jeko cells numbers was measured by flow cytometry and percent killing was calculated relative to control (*p<0.05, **p<0.01, two-way ANOVA).
To investigate CAR T-specific cytotoxicity, CART19 cells or control UTD T cells were co-cultured with the CD19^+ Mantle cell lymphoma cell line, Jeko-1, at 1:1 ratio and treated with vehicle (DMSO) or vecabrutinib at 1 μM or 10 μM for 24 hours (FIG. 1A).
Measurement of CART19 killing of JeKo-1 cells at different effector to target ratios. […] Results were normalized to target cells incubated with the respective concentration of the BTK inhibitor alone (with no CART19) to eliminate the direct cytotoxic effect of the inhibitor on lymphoma cells without CART19. 10 μM of ibrutinib was not included as it caused 100% killing of CART19 cells and Jeko-1 cells (FIGS. 11A and 11B).

CART19 cells [2] = experiment: CART19 proliferation: co-culture with irradiated JeKo-1, absolute CD3+ T cell counts by flow cytometry; assay type: cell-based, human; settings: 1 μM
Protocol: FIGS. 11A-11B. Proliferation. […] CART19 and irradiated JeKo-1 were co-cultured at 1:1 ratio for 24 hours in the presence of DMSO or vecabrutinib (1 μM or 10 μM) or ibrutinib (1 μM or 10 μM). Absolute CD3^+T cell counts were assessed by flow cytometry (*p<0.05, ****p<0.0001, two-way ANOVA). FIG. 11B) To further verify effect of BTK inhibition on CART19 proliferation, using different set of donors for CAR T cell production, CART19 and irradiated JeKo-1 were co-cultured at 1:1 ratio for 24 hours in the presence of DMSO or vecabrutinib (10 μM) or ibrutinib (10 μM).
For proliferation assays, CART19 cells were cultured with irradiated CD19^+ cell line Jeko-1 at a 1:1 ratio for 24 hours. Then, the cells were harvested and washed with flow buffer, following by surface staining with anti-hCD3 (eBioscience, San Diego, CA, USA) and LIVE/DEAD™ Fixable Aqua Dead Cell Stain Kit (Invitrogen, Carlsbad, CA, USA). […] Absolute quantification was obtained using volumetric measurement or CountBright absolute counting beads (Invitrogen, Carlsbad, CA, USA). […]
Next, the effect of vecabrutinib on CART19 proliferation was assessed. CART19 cells were cocultured with irradiated JeKo-1 cells for 24 hours in the presence of vecabrutinib (1 μM or 10 μM), and the absolute count of CART19 was measured by flow cytometry and used as a surrogate for proliferation. […]

CART19 cells [3] = experiment: RNA-Seq of CART19 cells stimulated with irradiated JeKo-1 (differential expression, Ingenuity Pathway Analysis); assay type: cell-based, human; settings: 10 μM vs vehicle
Protocol: CART19 and irradiated Jeko-1 cells were co-cultured at a 1:1 ration for 72 hours with DMSO or 10 μM Vecabrutinib. Three biological replicates of stimulated and unstimulated CART19 cells were included.
RNA was isolated using miRNeasy Micro kit (Qiagen, Gaithersburg, MD, USA) and treated with RNase-Free DNase Set (Qiagen, Gaithersburg, MD, USA). Total RNA was prepped with a SMARTer stranded total RNA-seq kit v2, Pico input mammalian (Takara, Mountain View, CA, USA). Total RNA (three samples per lane) was sequenced on an Illumina HiSeq 4000 (Illumina, San Diego, CA, USA). Library preparation and sequencing were performed by the Medical Genome Facility Genome, Analysis Core (Mayo Clinic, Rochester, MN, USA). Fastq files were viewed in FastQC v0.11.8 to check for quality. Adaptor sequences were removed using Cutadapt v1.18.46. Output files were re-checked for quality and adaptor removal using FastQC v0.11.8. The latest human (GRCh38) reference genomes were downloaded from NCBI. Genome index files were generated using STAR, and the paired end reads were mapped to the genome for each condition. HTSeq was used to generate expression counts for each gene, and DeSeq2 was used to calculate differential expression using adjusted p values <0.05. Heatmap was created using pheatmap (cran.r-project.org/web/packages/pheatmap/index.html). Networks were generated using Ingenuity Pathway Analysis v49932394 (QIAGEN, qiagenbioinformatics.com/products/ingenuity-pathway-analysis). Gene set enrichment analyses were performed using Enrichr (maayanlab.cloud/Enrichr/).
• Biological Replicates: C267, C278, C296 where CART19 cells were generated • Conditions: • Vehicle • 1 μM vecabrutinib • 10 μM vecabrutinib • Activated for 72 hours with Irradiated JeKo-1 (1:1 E:T Ratio) • mRNA was extracted from CART19 cells • RNA sequencing was performed
• FastQC (initial quality check) • Trimmomatic (trim adapters and overrepresented sequences) • FastQC (to confirm removal of the above) • STAR (align to the latest human genome annotation, GRCh38.p13) • HTSeq (obtain counts for each gene) • DESeq2 • Normalized counts across samples • Calculated differential expression between groups • Multiple hypothesis correction (Benjamini-Hochberg procedure)

luciferase+JeKo-1 cells = experiment: JeKo-1 xenograft model with CART19 plus oral vecabrutinib; assay type: in vivo; settings: CART19 + vecabrutinib 50 mg/kg BID vs CART19 + vehicle, weekly weighing (FIG. 4C)
Protocol: FIGS. 4A-4C. Reversible BTK inhibition in vivo enhances CAR T cell antitumor activity in xenograft models. […] On day-14, NSG mice were injected with 1×10^6 luciferase+JeKo-1 cells intravenously. Gavage began on day −1 with vecabrutinib 50 mg/kg BID or vehicle. Untransduced T cells (UTD) or CART19 were infused on day 0. Mice were imaged weekly to assess the tumor burden. p/s=photons/seconds. […] Mice were bled weekly to measure CART19 by flow cytometry (*p<0.05, one-way ANOVA). FIG. 4C) Vecabrutinib decreases CRS. Mouse weight and wellbeing along with elevation of human cytokines represent a surrogate for the development of CRS intensity in mice receiving CART19. […]
6-8 week old, non-obese diabetic/severe combined immunodeficient female mice bearing a targeted mutation in the interleukin (IL)-2 receptor gamma chain gene (NSG) were obtained from Jackson Laboratories (Jackson Laboratories, Bar Harbor, ME, USA). […] Mice were weighed weekly, and measurements were recorded in grams. Tumor burden was measured weakly by imaging mice with a bioluminescent imager using an IVIS® Lumina S5 Imaging System (PerkinElmer, Hopkinton, MA, USA), and measurements were recorded in total flux (p/s). […] Absolute quantification was obtained using volumetric measurement or CountBright absolute counting beads (Invitrogen, Carlsbad, CA, USA). […]

## C=CC(=O)N1CCC[C@@H](n2nc(-c3ccc(Oc4ccccc4)cc3)c3c(N)ncnc32)C1 [ibrutinib]
[1]; 10 μM
  killing of CART19 cells and Jeko-1 cells: 100%
[1]; different E:T ratios, 24 hours, vecabrutinib 1 μM or 10 μM, ibrutinib 1 μM, normalized to target cells with inhibitor alone (FIG. 10)
  CART19-mediated killing of Jeko-1 lymphoma cells: no effect
CART19 cells [2]; irradiated JeKo-1 1:1, 24 hours (FIG. 11A)
  CART19 proliferation (absolute CD3+ T cell count): no effect

## NC(=O)[C@H]1CCN(c2ncnc(N)c2F)C[C@@H]1N1CCC[C@@H](Nc2cc(Cl)cc(C(F)(F)F)c2)C1=O [vecabrutinib]
CART19 cells [3]; 72 hours (FIG. 5F, FIG. 9)
  PI3K/AKT signaling z-score (Ingenuity Pathway Analysis): 0.707
CART19 cells [3]; 72 hours (FIG. 9)
  IL-8 signaling pathway z-score (Ingenuity Pathway Analysis): −1.941
  PDGF signaling z-score (Ingenuity Pathway Analysis): −1.667
  PTEN signaling pathway Z-score (Ingenuity Pathway Analysis): 0.333
  STAT 3 pathway z-score (Ingenuity Pathway Analysis): −3.051
  TH1 pathway Z-score (Ingenuity Pathway Analysis): 0.816
[1]; CART19:JeKo-1 1:1, 24 hours, 1 μM or 10 μM vs DMSO (FIG. 1A)
  CART19-mediated killing of tumor cells (tumor specific cytotoxicity), percentage of killing relative to control: increases CART19-mediated killing of tumor cells; also recorded: dose-dependent increase
CART19 cells [2]; irradiated JeKo-1 1:1, 24 hours (FIG. 1B)
  CART19 antigen specific proliferation (absolute CD3+ T cell count): no significant effect
luciferase+JeKo-1 cells
  body weight change from day 0 (surrogate for CRS): decreases CRS; also recorded: better maintained their body weight
